{
  "source": "patent US20190230932A1",
  "about": "“Synergistic Combinations Of Monochloramine And Organic Acid, And Methods Of Using The Same For Microbial Control” (Buckman Laboratories International, Inc., priority 2018, published 2019)",
  "key": {"[1]": {"tested_on": "Pseudomonas bacterial cells", "test": "Checkerboard of monochloramine and citric acid, OD 600 nm growth curves over 48 hours (Example 2, FIGS. 2-5)", "format": "cell-based", "protocol": "In this study, Pseudomonas bacterial cells were grown in nutrient broth media. The nutrient broth media comprised corn mash (35 wt %) and water. Appropriate amount of culture cells, monochloramine and/or citric acid were transferred into 24-well plate and incubated at 37° C. for 48 hrs. in a plate reader. The 24-well plate layout held samples which contained monochloramine added in concentrations (ppm) of 0, 12.5, 50 and 100 ppm in different rows of well samples, and citric acid added in concentrations (ppm) of 0, 500, 3,000, 7,000, 10,000, and 20,000 in different columns of well samples, in a checkerboard pattern. Bacterial growth was monitored for each sample using a UV-VIS spectrophotometer to measure optical density (OD) (at measurement wavelength 600 nm) for the samples for 48 hours. The growth curves from the data are plotted in FIGS. 2-5."}, "[2]": {"tested_on": "Pseudomonas bacterial cells", "test": "Checkerboard of monochloramine and citric acid, bacterial growth in corn mash nutrient broth, 24-well plate (Example 1); on Bacterial growth at 12 hr.: key: −−−: No further growth observed; +++: Growth observed", "format": "cell-based", "parameters": "Bacterial growth at 12 hr. / Bacterial growth at 14 hr.: key: −−−: No further growth observed; +++: Growth observed", "conditions": "for Bacterial growth at 12 hr. / Bacterial growth at 14 hr.: 37° C., 600 nm", "protocol": "Laboratory experiments were performed to study the microbicidal efficacy of a combination of monochloramine with citric acid.\nPseudomonas bacterial cells were grown in nutrient broth media. The nutrient broth media comprised corn mash (35 wt %) and water. Appropriate amount of culture cells, monochloramine and/or citric acid were transferred into 24-well plate and incubated at 37° C. The 24-well plate layout held samples which contained monochloramine added in concentrations (ppm) of 0.00, 12.50, 50.00 and 100.00 in different rows of well samples, […], in different columns of well samples, in a checkerboard pattern, such as shown in Tables 1 and 2. Bacterial growth was monitored for each sample at 12 hours and 14 hours. Measurement was qualitative based upon measurement in a plate reader. A UV-VIS spectrophotometer was used at measurement wavelength 600 nm."}},
  "data": [
    {"compound": "O=C(O)CC(O)(CC(=O)O)C(=O)O", "note": "[Citric acid (CA), citric acid]", "values": [
      {"measurement": "control of bacteria growth (OD 600 nm growth curve)", "setting": "[1]; citric acid alone, 500 to 20,000 ppm, no MCA, FIG. 2", "value": "not all of the evaluated citric acid concentrations controlled bacteria growth"},
      {"measurement": "inhibition of bacterial growth", "setting": "[2]; 10,000 ppm citric acid added individually (no MCA)", "value": "not inhibitory to bacterial growth"},
      {"measurement": "Bacterial growth at 12 hr.", "setting": "[2]; MCA 0 ppm, CA 500 ppm", "value": "+++"},
      {"measurement": "Bacterial growth at 14 hr.", "setting": "[2]; MCA 0 ppm, CA 500 ppm", "value": "+++"},
      {"measurement": "Bacterial growth at 12 hr.", "setting": "[2]; MCA 0 ppm, CA 1000 ppm", "value": "+++"},
      {"measurement": "Bacterial growth at 14 hr.", "setting": "[2]; MCA 0 ppm, CA 1000 ppm", "value": "+++"},
      {"measurement": "Bacterial growth at 12 hr.", "setting": "[2]; MCA 0 ppm, CA 3000 ppm", "value": "+++"},
      {"measurement": "Bacterial growth at 14 hr.", "setting": "[2]; MCA 0 ppm, CA 3000 ppm", "value": "+++"},
      {"measurement": "Bacterial growth at 12 hr.", "setting": "[2]; MCA 0 ppm, CA 7000 ppm", "value": "+++"},
      {"measurement": "Bacterial growth at 14 hr.", "setting": "[2]; MCA 0 ppm, CA 7000 ppm", "value": "+++"},
      {"measurement": "Bacterial growth at 12 hr.", "setting": "[2]; MCA 0 ppm, CA 10000 ppm", "value": "+++"},
      {"measurement": "Bacterial growth at 14 hr.", "setting": "[2]; MCA 0 ppm, CA 10000 ppm", "value": "+++"}
    ]},
    {"compound": "NCl", "note": "[Oxamine (MCA), monochloramine]", "values": [
      {"measurement": "control of bacteria growth (OD 600 nm growth curve)", "setting": "[1]; 12.5 ppm monochloramine alone, FIG. 3", "value": "no control of bacteria growth"},
      {"measurement": "control of bacteria growth (OD 600 nm growth curve)", "setting": "[1]; 50 ppm monochloramine alone, FIG. 4", "value": "cells growth was delayed"},
      {"measurement": "control of bacteria growth (OD 600 nm growth curve)", "setting": "[1]; 100 ppm monochloramine without citric acid, FIG. 5", "value": "total inhibition of bacteria growth"},
      {"measurement": "inhibition of bacterial growth", "setting": "[2]; 50 ppm monochloramine added individually", "value": "not inhibitory to bacterial growth"},
      {"measurement": "control of bacterial growth", "setting": "[2]; 100 ppm MCA alone", "value": "sufficient to control"},
      {"measurement": "Bacterial growth at 12 hr.", "setting": "[2]; MCA 12.5 ppm, CA 0 ppm", "value": "+++"},
      {"measurement": "Bacterial growth at 14 hr.", "setting": "[2]; MCA 12.5 ppm, CA 0 ppm", "value": "+++"},
      {"measurement": "Bacterial growth at 12 hr.", "setting": "[2]; MCA 50 ppm, CA 0 ppm", "value": "+++"},
      {"measurement": "Bacterial growth at 14 hr.", "setting": "[2]; MCA 50 ppm, CA 0 ppm", "value": "+++"}
    ]}
  ]
}
